Target: T1, AKT1 (Homo sapiens, UniProt P31749)
T1 construct: Insect cells expressing His-tagged AKT1 (aa 136-480) were lysed; His; made in house; host or cells: insect cells
Test: AKT1 kinase inhibition assay (substrate phosphorylation, SPA)
Type: biochemical
Conditions: catalytic domain of AKT1; 10 nM activated AKT enzyme, 4 uM ATP, 8 uM peptide, 40 minutes at room temperature
Procedure: Isolation and Purification of His-tagged AKT1 (aa 136-480)
Insect cells expressing His-tagged AKT1 (aa 136-480) were lysed in 25 mM HEPES, 100 mM NaCl, 20 mM imidazole; pH 7.5 using a polytron (5 mLs lysis buffer/g cells). Cell debris was removed by centrifuging at 28,000×g for 30 minutes. The supernatant was filtered through a 4.5-micron filter then loaded onto a nickel-chelating column pre-equilibrated with lysis buffer. The column was washed with 5 column volumes (CV) of lysis buffer then with 5 CV of 20% buffer B, where buffer B is 25 mM HEPES, 100 mM NaCl, 300 mM imidazole; pH 7.5. His-tagged AKT1 (aa 136-480) was eluted with a 20-100% linear gradient of buffer B over 10 CV. […]
Compounds of the present invention are tested for AKT 1, 2, and 3 protein serine kinase inhibitory activity in substrate phosphorylation assays. […] Substrate phosphorylation is detected by the following procedure:
Assays are performed in 384well U-bottom white plates. […] The reaction is stopped by the addition of 50 ul SPA bead mix (Dulbecco's PBS without Mg^2+ and Ca^2+, 0.1% Triton X-100, 5 mM EDTA, 50 uM ATP, 2.5 mg/ml Streptavidin-coated SPA beads.) The plate is sealed, the beads are allowed to settle overnight, and then the plate is counted in a Packard Topcount Microplate Scintillation Counter (Packard Instrument Co., Meriden, Conn.). […]

T1 sequence (P31749 136-480): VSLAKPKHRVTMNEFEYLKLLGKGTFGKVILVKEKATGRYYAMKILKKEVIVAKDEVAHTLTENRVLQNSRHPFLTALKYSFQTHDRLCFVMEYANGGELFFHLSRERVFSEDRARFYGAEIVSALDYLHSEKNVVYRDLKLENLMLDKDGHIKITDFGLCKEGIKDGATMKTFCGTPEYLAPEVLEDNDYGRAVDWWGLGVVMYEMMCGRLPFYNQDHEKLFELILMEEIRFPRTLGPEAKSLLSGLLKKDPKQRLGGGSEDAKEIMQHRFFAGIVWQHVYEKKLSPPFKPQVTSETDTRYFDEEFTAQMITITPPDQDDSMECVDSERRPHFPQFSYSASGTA

Compound: Cc1n[nH]c2ccc(-c3cc(OC[C@@H](N)Cc4ccccc4)cnc3-c3ccccc3)cc12 [Example 1, (S)-1-Benzyl-2-[5-(3-methyl-1H-indazol-5-yl)-6-phenyl-pyridin-3-yloxy]-ethylamine]
- IC50: 182 nM
